Type in all cases: cell-based
Assay [1] concerns bacteria isolated from paper mill white water. Kind of assay: Biocidal efficacy of seven biocides in artificial white water. As to conditions: artificial white water pH 8.1, 37 C. Here is the method: Sterile artificial White Water (111 mg of CaCl2, 60 mg of MgSO4, 168 mg of NaHCO3, 140 mg of K2HPO4, 480 mg of NH4Cl, 1.04 mg of FeCl3.6H2O, 1.48 mg of Na2EDTA, 3000 mg of Dextrose, 10 mg of Yeast Extract, in 1 L water, pH 8.1) is contaminated with field isolated bacteria at a concentration of approximately 10^7 CFU/mL. The aliquots of this contaminated water are then treated with eight dosage levels of DBMAL and six other commonly used biocides in paper mill white water application. The same aliquots of the contaminated water without biocide are used as controls. After incubating at 37° C. for 4 hours, the valid bacteria in the aliquots are enumerated using a serial dilution method and the bacterial log10 reduction is calculated by comparing the valid bacteria number of biocide treated water aliquots to that of controls. Table 4 compares the efficacy of the seven biocides, expressed by bacterial log10 reduction.

The subject of assay [2] is bacteria in sulfite-containing white water. Kind of assay: Biocidal efficacy in presence of sulfite in contaminated paper mill white water (1-96 hours). As to conditions: for Bacterial log10 reduction at time point after biocide addition: about 80 ppm sulfite; for Duration of effectiveness (>3 log10 killing) compared with DBNPA: sulfite-containing white water. Here is the method: The same contaminated whitewater samples without biocide are used as controls. The mixtures are incubated at 37° C. with shaking (100 RPM) for 96 hrs. At 1 hr, 3 hrs, 24 hrs, 48 hrs, 72 hrs and 96 hrs time points after the biocide addition, the valid bacteria in the mixtures are enumerated using a serial dilution method and the bacterial log10 reduction is calculated by comparing the valid bacteria number of biocide treated water aliquots to that of controls. Starting from 24 hrs after the sampling, the mixtures are reinoculated with field isolated bacteria at about 10^5 CFU/mL and are supplied with additional sulfite to keep an 80 ppm sulfite concentration.

A further assay relates to field isolated bacteria. Kind of assay: Resistance of biocide to sulfite deactivation: biocide pretreated with sulfite in paper mill white water before efficacy testing. The conditions noted are these: for Decrease of efficacy due to sulfite pretreatment (bacterial log10 reduction): 80 ppm sulfite, 4 hrs; for Bacterial log10 reduction after treatment of biocide for 4 hrs: white water about pH 7.5, 37 C. As for the experimental part:
50 ppm to 80 ppm sulfite is representative of a sulfite level for pulp and paper applications. The same white water sample without sulfite is used as none sulfite comparison and the same whitewater samples containing no biocide and with or without sulfite are used as controls. The water samples are incubated at 37° C. for 5 min and then are inoculated with field isolated bacteria at a concentration of approximately 10^7 CFU/mL. The mixtures are then incubated at 37° C. for 4 hours. After that, the viable bacteria in the mixtures is enumerated using a serial dilution method.

Where [3] appears, read: 25 ppm active, 1 hr, pH 7.6, 37 C.
Setting [4] is: 25 ppm active, 3 hr, pH 7.6, 37 C.
The mark [5] stands for this setting: 25 ppm active, 24 hrs, pH 7.6, 37 C.
Setting [6] is: 25 ppm active, 48 hrs, reinoculated from 24 hrs.
The mark [7] stands for this setting: 25 ppm active, 72 hrs, reinoculated from 24 hrs.
[8] abbreviates: 25 ppm active, 96 hrs, reinoculated from 24 hrs.
[9] abbreviates: 50 ppm active, 1 hr, pH 7.6, 37 C.
Where [10] appears, read: 50 ppm active, 3 hr, pH 7.6, 37 C.
The mark [11] stands for this setting: 50 ppm active, 24 hrs, pH 7.6, 37 C.
Setting [12] is: 50 ppm active, 48 hrs, reinoculated from 24 hrs.
The mark [13] stands for this setting: 50 ppm active, 72 hrs, reinoculated from 24 hrs.
Setting [14] is: 50 ppm active, 96 hrs, reinoculated from 24 hrs.
Where [15] appears, read: 80 ppm sulfite pretreated, 29.7 ppm biocide.
Setting [16] is: 80 ppm sulfite pretreated, 44.5 ppm biocide.
[17] abbreviates: 80 ppm sulfite pretreated, 66.7 ppm biocide.
Where [18] appears, read: 80 ppm sulfite pretreated, 100.0 ppm biocide.
The mark [19] stands for this setting: non-sulfite treated, 29.7 ppm biocide.
[20] abbreviates: non-sulfite treated, 44.5 ppm biocide.
The mark [21] stands for this setting: non-sulfite treated, 66.7 ppm biocide.
Where [22] appears, read: non-sulfite treated, 100.0 ppm biocide.

The structures appear in SMILES notation.

For `CC1(C)C(=O)N(Cl)C(=O)N1Br` [BCDMH, 1-Bromo-3-chloro-5,5-dimethylhydantoin], in assay [1] (active ppm measured by available bromine & chlorine (chlorine/bromine)), the “Minimum dosage (ppm, active) required for at least 3 log10 reduction in numbers of bacteria in 4 hours” value is recorded as 71.74 (chlorine/bromine) ppm.
Turning to `NC(=O)C(Br)(Br)C(N)=O` [DBMAL, 2,2-Dibromomalonamide], the “Minimum dosage (ppm, active) required for at least 3 log10 reduction in numbers of bacteria in 4 hours” value in assay [1] (approximately 10^7 CFU/mL) is on record as 81.92 ppm. Moreover, the “Bacterial log10 reduction at time point after biocide addition” value (“Bacterial log10 reduction at time point” for short) in assay [2] (setting [3]) was 2.5 log10; in assay [2] (setting [4]), 3.2 log10; in assay [2] (setting [5]), 4.2 log10; in assay [2] (setting [6]), 3.7 log10; in assay [2] (setting [7]), 1.5 log10; in assay [2] (setting [8]), 1.2 log10. For the same molecule, the “Bacterial log10 reduction at time point” value in assay [2] (setting [9]) is “>=4.0 log10”; in assay [2] (setting [10]), 3.8 log10; in assay [2] (setting [11]), “>=4.3 log10”; in assay [2] (setting [12]), 4.3 log10; in assay [2] (setting [13]), 4.2 log10; in assay [2] (setting [14]) it was 3.8 log10. The “Duration of effectiveness (>3 log10 killing) compared with DBNPA” value in assay [2] (same active concentration of 25 ppm) was “one more day”; in assay [2] (same active concentration of 50 ppm), “two more days”. The “Decrease of efficacy due to sulfite pretreatment (bacterial log10 reduction)” value is listed as 0.7 log10 with field isolated bacteria (29.7 ppm biocide), 3.3 log10 in the assay on field isolated bacteria (44.5 ppm biocide), 2.7 log10 in the assay on field isolated bacteria (66.7 ppm biocide) and 2.4 log10 in the assay on field isolated bacteria (100.0 ppm biocide). For the same molecule, the “Bacterial log10 reduction after treatment of biocide for 4 hrs” value (from here on “Bacterial log10 reduction … for 4 hrs”) in the assay on field isolated bacteria (setting [15]) amounted to 1.0 log10; in the assay with field isolated bacteria (setting [16]), 1.0 log10; with field isolated bacteria (setting [17]), 2.3 log10; in the assay with field isolated bacteria (setting [18]) it was 2.3 log10; in the assay with field isolated bacteria (setting [19]), 1.7 log10; in the assay on field isolated bacteria (setting [20]), 4.3 log10. The “Bacterial log10 reduction … for 4 hrs” value with field isolated bacteria (setting [21]) turned out to be 5.0 log10; in the assay with field isolated bacteria (setting [22]), 4.7 log10. Besides, the “Decrease in efficacy when premixed with 80 ppm sulfite, compared with DBNPA” value with field isolated bacteria (premixed with 80 ppm sulfite) was “much smaller”.
With `N#CC(Br)(Br)C(N)=O` [DBNPA, 2,2-Dibromo-3-nitrilopropionamide], the “Minimum dosage (ppm, active) required for at least 3 log10 reduction in numbers of bacteria in 4 hours” value in assay [1] (approximately 10^7 CFU/mL) worked out at 128.00 ppm. In addition, the “Bacterial log10 reduction at time point” value in assay [2] (setting [3]) was “>=4.0 log10”; in assay [2] (setting [4]), “>=4.0 log10”; in assay [2] (setting [5]) it was 3.3 log10; in assay [2] (setting [6]), 1.5 log10; in assay [2] (setting [7]), 0.3 log10; in assay [2] (setting [8]), 0 log10. The “Bacterial log10 reduction at time point” value is reported as “>=4.0 log10” in assay [2] (setting [9]); “>=4.0 log10” in assay [2] (setting [10]); “>=4.3 log10” in assay [2] (setting [11]); 4.5 log10 in assay [2] (setting [12]); 1.0 log10 in assay [2] (setting [13]); 0.7 log10 in assay [2] (setting [14]). Also, the “Decrease of efficacy due to sulfite pretreatment (bacterial log10 reduction)” value in the assay on field isolated bacteria (29.7 ppm biocide) is “>=3.4 log10”; with field isolated bacteria (44.5 ppm biocide), “>=4.4 log10”; in the assay on field isolated bacteria (66.7 ppm biocide), “>=4.4 log10”; in the assay on field isolated bacteria (100.0 ppm biocide) it was “>=3.4 log10”. Besides, the “Bacterial log10 reduction … for 4 hrs” value with field isolated bacteria (setting [15]) was 1.3 log10; with field isolated bacteria (setting [16]) it was 1.3 log10; in the assay on field isolated bacteria (setting [17]) it was 1.3 log10; in the assay with field isolated bacteria (setting [18]), 2.3 log10; with field isolated bacteria (setting [19]), 4.7 log10; in the assay on field isolated bacteria (setting [20]) it was “>=5.7 log10”. Moreover, the “Bacterial log10 reduction … for 4 hrs” value in the assay with field isolated bacteria (setting [21]) and in the assay with field isolated bacteria (setting [22]) was “>=5.7 log10” each time.
Take `O=CCCCC=O` [Glutaraldehyde]: the “Minimum dosage (ppm, active) required for at least 3 log10 reduction in numbers of bacteria in 4 hours” value in assay [1] (approximately 10^7 CFU/mL) was found to be 163.84 ppm.
Regarding `NCl` [monochloramine], the “Minimum dosage (ppm, active) required for at least 3 log10 reduction in numbers of bacteria in 4 hours” value in assay [1] (active expressed as chlorine) is reported as 8.00 (chlorine) ppm.
